Publication PMC10648349, “Aromatic Diboronic Acids as Effective KPC/AmpC Inhibitors” (Molecules, 2023)

Tests used:
[1] = test system: E. coli 76 KPC-2(+); test: MIC of tested agent alone, microdilution; type: cell-based; details: Escherichia coli; read-out: MIC of agent alone
Summary of the method: (§1)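 Broth microdilution checkerboard: β-lactam in seven two-fold dilutions (1–64 mg/L) against tested agent or PBA in three two-fold dilutions (4–16 mg/L). Antibiotic MICs were read at each agent level, with agent-alone MICs run in parallel by microdilution.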

[2] = test system: E. coli 77 CMY-2(+); test: MIC of tested agent alone, microdilution; type: cell-based; details: Escherichia coli; read-out: MIC of agent alone
Summary of the method: as §1

[3] = test system: K. pneumoniae 81 KPC-3(+); test: MIC of tested agent alone, microdilution; type: cell-based; details: Klebsiella pneumoniae; read-out: MIC of agent alone
Summary of the method: as §1

[4] = test system: K. pneumoniae 83 KPC-3(+), CTX-M-3(+); test: MIC of tested agent alone, microdilution; type: cell-based; details: Klebsiella pneumoniae; read-out: MIC of agent alone
Summary of the method: as §1

[5] = test system: K. pneumoniae ATCC BAA-1705 KPC-2(+); test: MIC of tested agent alone, microdilution; type: cell-based; details: Klebsiella pneumoniae, ATCCBAA1705; read-out: MIC of agent alone
Summary of the method: as §1

[6] = test system: P. aeruginosa MUW 700 AmpC(+); test: MIC of tested agent alone, microdilution; type: cell-based; details: Pseudomonas aeruginosa; read-out: MIC of agent alone
Summary of the method: as §1

[7] = test system: K. pneumoniae ATCC 700603 ESBL-positive; test: combination disc test CDT-ESBL; type: cell-based; details: Klebsiella pneumoniae, ATCC700603, read-out: Diameter of inhibition zone, CAZ-30 disc with agent; for zone of inhibition at 300 µg/disc: agent 0.3 mg per disc
[8] = test system: P. aeruginosa MUW 700 cAmpC-positive; test: checkerboard microdilution, antibiotic plus tested agent; type: cell-based, Pseudomonas aeruginosa
Experimental: (§2) To examine the ability of tested agents to inhibit various carbapenemases and AmpC-enzymes, their synergy with antibiotics against β-lactamase-producing strains was assessed by checkerboard microdilution assay, with slight modification. Checkerboards were prepared in microtiter plates, with seven two-fold dilutions of β-lactams (1–64 mg/L) in the rows and three two-fold dilutions of tested agents and PBA (4–16 mg/L) in the columns. Tested agents’ concentrations were limited to the concentrations at which the newest commercially available BLIs (vaborbactam, relebactam, and avibactam) are used in susceptibility testing. Plates were inoculated and incubated as in the MIC microdilution assay. Parallel, MICs of tested agents and PBA alone were determined by the microdilution assay. Following the incubation, antibiotic MICs in the presence of each agent’s concentration were determined. Moreover, for the first well without growth found in each checkerboard row and column along the growth/non-growth interface, the fractional inhibitory concentration index (FICI) was calculated using the formula below:FICI = [(MIC of antibiotic in combination)/(MIC of antibiotic alone)] + [(MIC of the tested agent in combination)/(MIC of tested agent alone)].
(§3) For calculations, all off-scale MICs were converted to the next-highest doubling concentration. Subsequently, both the average and the lowest FICI were interpreted. The interpretation was as follows: FICI ≤ 0.5, synergy; 0.5 < FICI ≤ 4, indifference and FICI > 4, antagonism. Primarily, examined combinations consisted of meropenem (Pol-Aura, Morag, Poland) plus tested agents against carbapenemases-producing strains and ceftazidime (Pol-Aura, Morag, Poland) plus tested agents against AmpC-producing strains. For agents that reduced meropenem MIC at least 4-fold for at least two tested strains, similar assays were performed with imipenem (Pol-Aura, Morag, Poland) and ertapenem (Pol-Aura, Morag, Poland).

[9] = test system: AmpC producers; test: microdilution with ceftazidime; type: cell-based
Experimental: as §2, §3

[10] = test system: E. coli 77 CMY-2(+); test: screening test of direct antimicrobial activity (STDA), disc-diffusion; type: cell-based; details: Escherichia coli, - no zone, read-out: Diameter of inhibition zone around disc with tested agent; for zone of inhibition at 300 µg/disc: 0.3 mg per disc
Experimental: (§4) Prior to combination disc tests, screening tests of direct antimicrobial activity (STDA) of the tested agent against β-lactamase-producing strains were performed by the disc-diffusion method. Discs with 0.3 mg, 0.1 mg, and 0.03 mg of each agent were examined. The highest amount of an agent that caused no effect on bacterial growth was used in further experiments.

[11] = test system: P. aeruginosa MUW 700 AmpC(+); test: as above; type: cell-based; details: Pseudomonas aeruginosa; 0.3 mg per disc; - no zone; read-out: Diameter of inhibition zone around disc with tested agent
Experimental: as §4

[12] = test system: K. pneumoniae ATCC 700603 ESBL(+); test: as above; type: cell-based; details: Klebsiella pneumoniae, ATCC700603; 0.3 mg per disc; - no zone; read-out: Diameter of inhibition zone around disc with tested agent
Experimental: as §4

[13] = test system: K. pneumoniae ATCC BAA 1705 KPC(+); test: as above; type: cell-based; details: Klebsiella pneumoniae, BAA1705; 0.3 mg per disc; - no zone; read-out: Diameter of inhibition zone around disc with tested agent
Experimental: as §4

| SMILES | MIC [1] | MIC [2] | MIC [3] | MIC [4] | MIC [5] | MIC [6] | ceftazidime MIC reduction, up to ([9]; agent 4 mg/L) | ceftazidime MIC reduction, up to ([9]; agent 8 mg/L) | ceftazidime MIC reduction, up to ([9]; agent 16 mg/L) | zone of inhibition at 300 µg/disc [7] | Average FICI with ceftazidime [8] | Interpretation of the average FICI with ceftazidime [8] | Interpretation of the lowest FICI with ceftazidime [8] | The lowest FICI with ceftazidime [8] | zone of inhibition at 300 µg/disc [10] | zone of inhibition at 300 µg/disc [11] | zone of inhibition at 100 µg/disc ([10]; 0.1 mg per disc) | zone of inhibition at 300 µg/disc [12] | zone of inhibition at 300 µg/disc [13] | zone of inhibition at 100 µg/disc ([7]; agent 0.1 mg per disc) |
| --- | --- | --- | --- | --- | --- | --- | --- | --- | --- | --- | --- | --- | --- | --- | --- | --- | --- | --- | --- | --- |
| O=Cc1cc(F)ccc1B(O)O [7b] | – | – | – | – | – | – | – | – | – | – | – | – | – | – | 14 mm | – | 12 mm | 13 mm | 14 mm | – |
| OB(O)c1ccc(B(O)O)c(B(O)O)c1 [4b, benzene-1,2,4-triboronic] | > 400 µg/mL | > 400 µg/mL | > 400 µg/mL | > 400 µg/mL | > 400 µg/mL | > 400 µg/mL | ≤ 2 fold | up to 4 fold | ≤ 8 fold | 14 mm | 0.30 | S (FICI ≤ 0.5, synergy) | S (FICI ≤ 0.5, synergy) | 0.15 | – | – | – | – | – | – |
| OB(O)c1ccsc1B(O)O [5a, thiophene-2,3-diboronic acid] | > 400 µg/mL | > 400 µg/mL | > 400 µg/mL | > 400 µg/mL | > 400 µg/mL | > 400 µg/mL | ≤ 2 fold | up to 4 fold | ≤ 8 fold | 16 mm | 0.30 | S (FICI ≤ 0.5, synergy) | S (FICI ≤ 0.5, synergy) | 0.15 | – | – | – | – | – | – |

Second part, led by results:

| MIC [1] | MIC [2] | MIC [3] | MIC [4] | MIC [5] | MIC [6] | ceftazidime MIC reduction, up to ([9]; agent 4 mg/L) | ceftazidime MIC reduction, up to ([9]; agent 8 mg/L) | ceftazidime MIC reduction, up to ([9]; agent 16 mg/L) | SMILES | zone of inhibition at 300 µg/disc [7] | Average FICI with ceftazidime [8] | Interpretation of the average FICI with ceftazidime [8] | Interpretation of the lowest FICI with ceftazidime [8] | The lowest FICI with ceftazidime [8] | zone of inhibition at 300 µg/disc [10] | zone of inhibition at 300 µg/disc [11] | zone of inhibition at 100 µg/disc ([10]; 0.1 mg per disc) | zone of inhibition at 300 µg/disc [12] | zone of inhibition at 300 µg/disc [13] | zone of inhibition at 100 µg/disc ([7]; agent 0.1 mg per disc) |
| --- | --- | --- | --- | --- | --- | --- | --- | --- | --- | --- | --- | --- | --- | --- | --- | --- | --- | --- | --- | --- |
| > 400 µg/mL | > 400 µg/mL | > 400 µg/mL | > 400 µg/mL | > 400 µg/mL | > 400 µg/mL | ≤ 2 fold | up to 4 fold | ≤ 8 fold | OB(O)c1cccc(F)c1B(O)O [3b] | 16 mm | 0.60 | I (0.5 < FICI ≤ 4, indifference) | S (FICI ≤ 0.5, synergy) | 0.27 | – | – | – | – | – | – |
| 400 µg/mL | 400 µg/mL | > 400 µg/mL | > 400 µg/mL | > 400 µg/mL | > 400 µg/mL | – | – | – | OB(O)c1cc(F)cc(B(O)O)c1 [2b] | 16 mm | 0.35 | S (FICI ≤ 0.5, synergy) | S (FICI ≤ 0.5, synergy) | 0.26 | 13 mm | 11 mm | – | – | – | – |
| 100 µg/mL | 100 µg/mL | 200 µg/mL | 200 µg/mL | 200 µg/mL | > 400 µg/mL | – | – | – | OB(O)c1cc(Br)c(B(O)O)cc1Br [1i] | – | – | – | – | – | 16 mm | 12 mm | – | 13 mm | 15 mm | 14 mm |
